Where two headings read alike, the source gives them in different places.
Assay: Suramin plasma pharmacokinetics by LC-MS/MS, two compartment population PK model, pediatric patients
Type: in vivo, human
Conditions: for concentration at 1 h: read-out: 1-Hour Plasma Conc; for concentration at 45 days: read-out: 45-Day Plasma Conc; for concentration at 2 days: read-out: 2-Day Plasma Conc
Experimental: For the test dose, 50 mg of suramin hexasodium (Bayer Pharmaceuticals, Inc.) in 5 mL of saline (experimental arm, 5 patients), or 5 mL of saline only (control arm, 5 patients) were given by slow intravenous (IV) push over 3 minutes, followed by a 10 mL flush of saline. One hour after the test dose, vital signs were repeated and a single infusion of either suramin (20 mg/kg, minus the 50 mg test dose, in 50 mL, up to a maximum of 1 gram) or saline (50 mL IV) was given over 30 minutes, followed by a 10 mL flush of saline.
Suramin pharmacokinetics was assessed by serum isolation at the 4 time points immediately before and after the infusion. […] Unexpected and adverse events were recorded as they occurred and graded in severity according to the National Cancer Institute Common Terminology Criteria for Adverse Events v4.03 (CTCAE) scale. Additional pharmacovigilence monitoring included daily scripted phone calls in the first week, then 4 weekly calls until the exit examinations at 6 weeks.
Heparinized plasma, 90 μl was prepared for LC-MS/MS analysis. Ten (10) μl of 50 μM stock of trypan blue was added to achieve an internal standard concentration of 5μM. This was incubated at room temperature for 10 min to permit metabolite interaction with binding proteins, then extracted with 4 volumes (400 μl) of pre-chilled methanol-acetonitrile (50:50) to produce a final concentration of 40:40:20 (methanol:acetonitrile:H2O), and precipitated on ice for 10 minutes. The samples were deproteinated and macromolecules removed by precipitation on crushed ice for 10 min.
The mixture was centrifuged at 16,000g for 10 min at 4° C. and the supernatant was transferred to a new tube and kept at −80° C. for further LC-MS/MS analysis.
Suramin was detected in the prepared samples on an AB SCIEX QTRAP 5500 triple quadrupole mass spectrometer equipped with a Turbo V electrospray ionization (ESI) source, Shimadzu LC-20A UHPLC system, and a PAL CTC autosampler. […] The mobile phase A was water with 20 mM ammonium acetate (NH4OAC) (pH 7) and mobile phase B was methanol with 20 mM NH4OAC (pH 7). […] The flow rate was 400 μl/min. All the samples were kept at 4° C. during analysis. Suramin and trypan blue were detected using MRM scanning mode with the dwell time of 180 ms. […] Absolute concentrations of suramin were determined using a standard curve prepared in plasma to account for matrix effects, and the peak area ratio of suramin to the internal standard trypan blue. […] The ESI source parameters were set as follows: source temperature 500° C.; curtain gas 30; ion source gas 1, 35; ion source gas 2 35; spray voltage −4500 V. Analyst v1.6 was used for data acquisition and analysis.
The small number of PK samples per subject prevented a standard, non-compartmental analysis in individual subjects. The suramin drug concentrations were analyzed using a population PK approach with post-hoc empiric Bayesian estimate of PK parameters in individual subjects. The PK data were fit to a two compartment model using the computer program NONMEM (ICON, Dublin, Ireland). PK parameters were scaled allometrically with volume terms scaled to linear body weight (kg1.0) and clearance terms scaled to weight (kg0.75). Scaled adult suramin parameters of compartmental volumes of distribution and clearance were used as initial parameter estimates and between subject variability only estimated for clearance (CL) and the peripheral volume of distribution (Vd).

[1] = human, plasma, iv, 20 mg/kg, Mean of 5 subjects, 20 mg/kg (558 mg/m^2) IV
[2] = human, plasma, iv, 460 mg, ID 007, 460 mg (529 mg/m^2) IV
[3] = human, plasma, iv, 460 mg, ID 012, 460 mg (529 mg/m^2) IV
[4] = human, plasma, iv, 500 mg, ID 005, 500 mg (526 mg/m^2) IV
[5] = human, plasma, iv, 680 mg, ID 001, 680 mg (591 mg/m^2) IV
[6] = human, plasma, iv, 1000 mg, ID 014, 1000 mg (613 mg/m^2) IV
[7] = human, plasma, Mean of 5 subjects, 20 mg/kg (558 mg/m^2) IV

SMILES: Cc1ccc(C(=O)Nc2ccc(S(=O)(=O)O)c3cc(S(=O)(=O)O)cc(S(=O)(=O)O)c23)cc1NC(=O)c1cccc(NC(=O)Nc2cccc(C(=O)Nc3cc(C(=O)Nc4ccc(S(=O)(=O)O)c5cc(S(=O)(=O)O)cc(S(=O)(=O)O)c45)ccc3C)c2)c1 [Suramin, suramin]
- clearance (20 mg/kg IV): 0.056±0.011 L/hr/m2
- steady-state volume of distribution (20 mg/kg IV): 22.7±2.6 L/m2
- suramin levels (before Day 2, all subjects): below 100 μM
- plasma concentrations maintained (between 2 days and 5-6 weeks following the dose): 1.5 to 15 µM
- half-life (human, plasma, iv, 20 mg/kg, 20 mg/kg IV, read-out: alpha (distribution) phase half-life (converted)): 0.308 ± 0.0229 days
- concentration at 1 h [1]: 104 µM
- concentration at 45 days [1]: 1.54 µM
- half-life (human, plasma, iv, 20 mg/kg, Mean of 5 subjects, 20 mg/kg (558 mg/m^2) IV, read-out: Plasma Half-Life (terminal elimination phase half-life) (converted)): 14.7 days
- concentration at 1 h [2]: 87.9 µM
- concentration at 2 days [2]: 11.9 µM
- concentration at 45 days [2]: 1.67 µM
- concentration at 1 h [3]: 119 µM
- concentration at 2 days [3]: 13.8 µM
- concentration at 45 days [3]: 2.28 µM
- half-life (human, plasma, iv, 460 mg, ID 012, 460 mg (529 mg/m^2) IV, read-out: Plasma Half-Life (converted)): 16.5 days
- concentration at 1 h [4]: 102 µM
- concentration at 2 days [4]: 10.6 µM
- concentration at 45 days [4]: 1.76 µM
- half-life (human, plasma, iv, 500 mg, ID 005, 500 mg (526 mg/m^2) IV, read-out: Plasma Half-Life (converted)): 15 days
- concentration at 1 h [5]: 101 µM
- concentration at 2 days [5]: 13.2 µM
- concentration at 45 days [5]: 0.96 µM
- half-life (human, plasma, iv, 680 mg, ID 001, 680 mg (591 mg/m^2) IV, read-out: Plasma Half-Life (converted)): 12.6 days
- concentration at 1 h [6]: 111 µM
- concentration at 2 days [6]: 10.6 µM
- concentration at 45 days [6]: 1.04 µM
- half-life (human, plasma, iv, 1000 mg, ID 014, 1000 mg (613 mg/m^2) IV, read-out: Plasma Half-Life (converted)): 14.9 days
- clearance (human, plasma, 20 mg/kg IV, read-out: clearance (converted)): 1.95 mL/h/kg
- Vd (human, plasma, 20 mg/kg IV, read-out: steady-state volume of distribution): 0.83 ± 0.014 L/kg
- concentration at 1 h [7]: 104 ± 11.6 µM
- concentration at 2 days [7]: 12 ± 1.5 µM

Reference: patent publication US20190358181A1, “METHODS FOR AUTISM SPECTRUM DISORDER PHARMACOTHERAPY” (priority 2017, published 2019)
